Assay results: article PMC11274801, “A Novel PDE10A Inhibitor for Tourette Syndrome and Other Movement Disorders” (Cells, 2024)

Key:
striatal cAMP and cGMP = experiment: cAMP and cGMP levels in the striatum; assay type: in vivo, rat; settings: maximal dose 30 mg/kg
Description: The striatum was dissected, weighed, and then frozen in liquid nitrogen. For cyclic nucleotide measurements, frozen striatal tissue was homogenized in 5% trichloroacetic acid and centrifuged and the supernatant was collected. Supernatants were ether-washed and then the cAMP and cGMP levels in the aqueous phase were determined by enzyme immunoassay using kits from Cayman Chemical Co. (Ann Arbor, MI, USA)

[1] = system: patients with stage I–II HD; set-up: method as in earlier work; settings: cited from earlier work
primates = system: primates; set-up: method as in PMID 24490227; settings: cited from earlier work
acute schizophrenia = settings: press release ref 44; cited from earlier work
D2 receptor = settings: 2–5 mg daily ref 54; cited from earlier work

## Cn1cc(-c2ccncc2)c(-c2ccc(OCc3ccc4ccccc4n3)cc2)n1 [MP-10]
Striatal cAMP and cGMP
  effect on striatal cAMP and cGMP levels: increases
[1]; 26-week phase 2, 272 patients ref 45
  primary outcome (UHDRS-TMS) and clinical global impression of improvement: no improvement in the primary outcome measure
[1]; 26-week phase 2 ref 45
  quantitative motor assessment (Q-motor): dose-dependent improvement
primates
  effect on motivational aspects of behavior: dampen motivational aspects of behavior to a greater extent than a D2 antagonist

## Cc1ncc(C)n2nc(-c3ccn4cc(-c5ccccc5)nc4n3)nc12 [CPL500-036]
Acute schizophrenia
  efficacy in acute schizophrenia: positive efficacy vs. placebo

## O=C(CCCN1CCC(O)(c2ccc(Cl)cc2)CC1)c1ccc(F)cc1 [haloperidol]
D2 receptor
  D2 occupancy: 60–80%
